Assay results as given in patent US20100233737A1, “MARKER SPECIFIC TO AN OXIDATIVE DEGRADATION OF TISSUES CONTAINING TYPE III COLLAGEN, MEANS AND METHODS AND KITS FOR THE DIAGNOSIS, MONITORING OR PROGNOSIS OF PATHOLOGIES TARGETED BY THIS MARKER” (priority 2006, published 2010).
No end group written: not given here.

Test system: antiserum anti-IIINys (polyclonal, directed against SEQ ID No. 2)
Experiment: Competitive ELISA, specificity of the antiserum anti IIINys vis-à-vis different peptides
Type: binding, rabbit
Settings: biotinylated IIINys coated on plate, competitor peptide in solution
Method: FIG. 4 illustrates the specificity of the polyclonal antibodies prepared vis-à-vis the IIINys, with respect to other synthetic peptides. B/B0 represents the ratio between the quantity of anti-IIINys antibodies fixed to the antigen fixed (“coated”) onto the plate in the presence of competitor compound (B) and in the absence of competitor compound (B0).
Rabbits were injected by intra-peritoneal route with the peptide conjugated to KLH emulsified with Freund's complete adjuvant. This operation was repeated 3 times over three months using the same peptide with Freund's incomplete adjuvant. After each injection a sample of rabbit blood was taken. This blood was left to coagulate for 30 minutes and the whole sample was centrifuged for 10 minutes at 2500 rpm in order to recover the serum. Ten days after the last injection, the rabbits were sacrificed and all the blood was recovered. Each serum sample was titrated by ELISA technique in the presence of the synthetic peptide. The antiserum with the best titre was selected for the finalization of the competitive ELISA (Harlow and Lane, 1988a).
The peptide conjugated to the biotin diluted with the coating buffer is adsorbed on plates avidinated for 2 hours at ambient temperature. After washing, 50 μl of antisera diluted to the optimum titre are added to 50 μl of standard (synthetic peptide diluted in buffer) or to 50 μl of samples to be assayed and are left to incubate overnight at 4° C. After washing, 100 μl of secondary antibodies coupled to the peroxidase directed against the rabbit immunoglobulins are added over one hour at ambient temperature. The wells are washed and 100 μl of substrate (TMB) are added. The reaction is stopped with 100 μl of H2SO4.
The antiserum selected was tested vis-à-vis different peptides according to the ELISA method described previously in order to verify its specificity (FIG. 4). The peptides tested are: the peptide IIINys of sequence SEQ ID No. 2 (the immunogenic peptide), the peptide of sequence SEQ ID No. 3 (the peptide IIINys with only the first tyrosine nitrosylated), the peptide of sequence SEQ ID No. 4 (the peptide IIINys with only the second tyrosine nitrosylated), the peptide of sequence SEQ ID No. 9 (the peptide IIINys with an additional amino acid on the N-terminal side), the peptide of sequence SEQ ID No. 8 (the peptide IIINys with its tyrosines non nytrosylated), 3-nitrotyrosine (FIG. 2), with the nitrosylated BSA of sequence SEQ ID No. 11.

Row | Compound | competition with the peptide IIINys (SEQ ID No. 2) adsorbed on the plate for the antiserum (B/B0, FIG. 4)
1 | N[C@@H](Cc1ccc(O)c([N+](=O)[O-])c1)C(=O)O [3-nitrotyrosine, reference compound] | not capable of entering into competition
2 | QY*DSYDVKSG [SEQ ID No. 3, the peptide IIINys with only the first tyrosine nitrosylated] | less affinity than for the peptide IIINys
3 | QYDSY*DVKSG [SEQ ID No. 4, the peptide IIINys with only the second tyrosine nitrosylated] | less affinity than for the peptide IIINys
4 | QYDSYDVKSG [SEQ ID No. 8, the peptide IIINys with its tyrosines non nitrosylated] | not capable of entering into competition
5 | PQY*DSY*DVKSG (PQYDSYDVKSG; not fully specified (residues 3, 6); printed as PQY*DSY*DVKSG) [SEQ ID No. 9, the peptide IIINys with an additional amino acid on the N-terminal side, reference compound] | not capable of entering into competition
